The source of these data is patent US5147878A, “Aminoalkoxyphenyl derivatives, process of preparation and compositions containing the same” (Sanofi, priority 1986, dated 1992).

Counter-ions that a name gives are not always drawn.

For the test, the system named is isolated rat aorta. The test is described as follows: Calcium inhibitory properties: contractile response to potassium-induced depolarization on isolated rat aorta. The arrangement: species or system isolated organ, male Wistar rats. Conditions: for activity at 0.1 µM: 10^-7 M; for activity at 0.01 µM: 10^-8 M; for activity at 1 µM: 10^-6 M; for % of the maximum contractional effect: head printed "10^-" (exponent missing; first of three columns before 10^-6 M), 60 min. From the text: It is well established that the depolarization of a smooth muscle membrane by potassium renders the latter permeable to extracellular calcium and induces muscle contraction. Consequently, the measurement of the inhibition of the contractile response to depolarization by potassium, or the measurement of a relaxation of the tonic contraction on potassium depolarization, can represent an evaluation of the power of a compound as an inhibitor of the membrane permeability to Ca^++ ions. The technique used was as follows: The aorta was removed from male Wistar rats weighing approximately 300 g, and cut into strips approximately 40 mm long and 3 mm wide. These fragments were placed in a 25-ml isolated organ trough containing a modified Krebs-bicarbonate solution (112 mM NaCl; 5 mM KCl; 25 mM NaHCO3; 1 mM KH2 PO4; 1.2 mM MgSO4; 2.5 mM CaCl2; 11.5 mM glucose, distilled water to 1000 ml) through which a stream of 5-7% carbon dioxide in oxygen was passed, and maintained at 37° C. The preparation was connected to a force microsensor and the contractile response recorded after amplification on a recorder. A tension of 2 g was applied to the preparation. This tension was maintained for 60 minutes in the modified Krebs-bicarbonate solution, and contractions were then induced by replacing the Krebs-bicarbonate solution by a potassium-Krebs solution (17 mM NaCl; 100 mM KCl; 25 mM NaHCO3; 1 mM KH2 PO4; 1.2 mM MgSO4; 2.5 mM CaCl2; 11.5 mM glucose; distilled water to 1000 ml). When the contractile response of the preparation had become reproducible, a given amount of a compound of the invention was introduced into the bath. Sixty minutes later, a new spasm was induced by potassium depolarization. The results obtained on the aorta used in the experiment were then expressed as a percentage of the maximum contractional effect before incubation with the test substance. By way of examples, the results which follow were obtained, the compounds of formula (1) being in the form of the base, hydrochloride or oxalate.

The mark [1] stands for this setting: Rattus norvegicus, 1 h, read-out: % of the maximum contractional effect.

As to `CCCCN(CCCC)CCCOc1ccc([S+]([O-])c2c(C(C)C)cn3ccccc23)cc1` (racemic) [Ex. 54, 4-[3-(di-n-butylamino)propyl]oxyphenyl(2-isopropyl-1-indolizinyl)sulphoxide oxalate], under setting [1], the activity at 0.1 µM is 74.3% and the activity at 0.01 µM is 82.4%.
Turning to `CCc1cn2ccccc2c1S(=O)(=O)c1ccc(OCCCNC(C)(C)C)cc1` [Ex. 3, 2-ethyl-1-{4-[3-(tert-butylamino)propyloxy]benzenesulphonyl}indolizine hydrochloride], the activity at 1 µM under setting [1] is 30.7%.
The same measure, in the same setting: in the case of `CCN(CC)CCCOc1ccc(S(=O)(=O)c2c(C)cn3ccccc23)cc1` [Ex. 4, 2-Methyl-1-{4-[3-(diethylamino)propyloxy]benzenesulphonyl}indolizine oxalate] it was 77.2%.
Consider `CCCN(CCC)CCCOc1ccc(S(=O)(=O)c2c(C)cn3ccccc23)cc1` [Ex. 5, 2-Methyl-1-{4-[3-(di-n-propylamino)propyloxy]benzenesulphonyl}indolizine], for which the activity at 1 µM under setting [1] was found to be 48.9%.
As for `CCCCN(CCCC)CCCOc1c(C)cc(S(=O)(=O)c2c(CC)cn3ccccc23)cc1C.Cl` [Ex. 10, 2-Ethyl-1-{4-[3-(di-n-butylamino)propyloxy]-3,5-dimethylbenzenesulphonyl}indolizine hydrochloride], under setting [1], the activity at 1 µM was determined as 2.9%, the activity at 0.1 µM is 49% and the activity at 0.01 µM amounted to 82.6%. Moreover, the Activity ratio (compound / Compound D) was 2.2.
Consider `CCCCN(CCCC)CCCOc1ccc(S(=O)(=O)c2c(C(C)(C)C)cn3ccccc23)cc1` [Ex. 16, 2-tert-Butyl-1-{4-[3-(di-n-butylamino)propyloxy]-benzenesulphonyl}indolizine], for which, under setting [1], the activity at 0.1 µM is 35.8% and the activity at 0.01 µM turned out to be 78.7%.
In the case of `CCCCN(CCCC)CCOc1ccc(S(=O)(=O)c2c(CC)cn3ccccc23)cc1` [Ex. 22, 2-Ethyl-1-{4-[2-(di-n-butylamino)ethyloxy]benzenesulphonyl}indolizine hydrochloride], under setting [1], the activity at 0.1 µM was found to be 37% and the activity at 0.01 µM amounted to 90.2%.
On to `CC(C)(C)NCCCOc1ccc(S(=O)(=O)c2c(-c3ccccc3)cn3ccccc23)cc1` [Ex. 24, 2-Phenyl-1-{4-[3-(tert-butylamino)propyloxy]benzenesulphonyl}indolizine hydrochloride], for which the activity at 1 µM under setting [1] worked out at 62.1%.
As for `Cc1cc(S(=O)(=O)c2c(-c3ccccc3)cn3ccccc23)ccc1OCCCNC(C)(C)C` [Ex. 25, 2-Phenyl-1-{4-[3-(tert-butylamino)propyloxy]-3-methylbenzenesulphonyl}indolizine hydrochloride], the activity at 1 µM under setting [1] worked out at 67.7%.
`CC(C)c1cn2ccccc2c1S(=O)(=O)c1ccc(OCCCNCCc2ccccc2)cc1` [Ex. 31, 2-Isopropyl-1-{4-[3-(β-phenethylamino)propyloxy]benzenesulphonyl}indolizine hydrochloride]: under setting [1], the activity at 1 µM came to 16.8%, the activity at 0.1 µM turned out to be 31.8% and the activity at 0.01 µM came to 73.9%.
For `CC(C)c1cn2ccccc2c1S(=O)(=O)c1ccc(OCCCNCc2ccccc2)cc1` [Ex. 32, 2-Isopropyl-1-{4-[3-(benzylamino)propyloxy]benzenesulphonyl}indolizine hydrochloride], in that order: 3.6%, 19.4% and 65.9%.
For `CC(C)c1cn2ccccc2c1S(=O)(=O)c1ccc(OCCCN2CCN(c3ccccc3)CC2)cc1` [Ex. 33, 2-Isopropyl-1-{4-[3-(N-phenylpiperazino)propyloxy]benzenesulphonyl}indolizine], in that order: 24.6%, 57.6% and 87%.
On to `CC(C)c1cn2ccccc2c1S(=O)(=O)c1ccc(OCCCNCCc2ccccn2)cc1` [Ex. 34, 2-Isopropyl-1-{4-[3-(2-pyridylethylamino)propyloxy]benzenesulphonyl}indolizine dioxalate], for which, under setting [1], the activity at 1 µM was found to be 3.3%, the activity at 0.1 µM was found to be 28.1% and the activity at 0.01 µM was 82.6%.
For `CC(C)c1cn2ccccc2c1S(=O)(=O)c1ccc(OCCCN2CCC(c3ccccc3)CC2)cc1` [Ex. 35, 2-Isopropyl-1-{4-[3-(4-phenylpiperidino)propyloxy]-benzenesulphonyl}indolizine], in that order: 8.3%, 25% and 65.6%.
In the case of `CCCCCCCCN(CCCCCCCC)CCCOc1ccc(S(=O)(=O)c2c(C(C)C)cn3ccccc23)cc1` [Ex. 36, 2-Isopropyl-1-{4-[3-(di-n-octylamino)propyloxy]-benzenesulphonyl}indolizine], under setting [1], the activity at 1 µM is 83.3% and the activity at 0.1 µM is 93.7%.
Consider `CCCCCN(CCCCC)CCCOc1ccc(S(=O)(=O)c2c(C(C)C)cn3ccccc23)cc1` [Ex. 37, 2-Isopropyl-1-{4-[3-(di-n-pentylamino)propyloxy]-benzenesulphonyl}indolizine hydrochloride], for which, under setting [1], the activity at 0.1 µM is 48.7% and the activity at 0.01 µM amounted to 77.8%.
For the compound `CCc1cn2ccccc2c1S(=O)(=O)c1ccc(OCCCn2ccnc2)cc1` [Ex. 38, 2-Ethyl-1-{4-[3-(1-imidazolyl)propyloxy]benzenesulphonyl}indolizine], the activity at 0.1 µM under setting [1] amounted to 85.9%.
As for `CCCCN(CCCC)CCCCOc1ccc(S(=O)(=O)c2c(C(C)C)cn3ccccc23)cc1` [Ex. 39, 2-Isopropyl-1-{4-[4-(di-n-butylamino)butyloxy]benzenesulphonyl}indolizine], under setting [1], the activity at 0.1 µM amounted to 17.9% and the activity at 0.01 µM stood at 62.9%.
For `CCCCN(CCCC)CCCCCOc1ccc(S(=O)(=O)c2c(CC)cn3ccccc23)cc1` [Ex. 40, 2-Ethyl-1-{4-[5-(di-n-butylamino)pentyloxy]benzenesulphonyl}indolizine], in that order: 49.7% and 87.9%.
Regarding `COc1ccc(CN(C)CCCOc2ccc(S(=O)(=O)c3c(C(C)C)cn4ccccc34)cc2)cc1OC` [Ex. 41, 2-Isopropyl-1-[4-{3-[N-methyl-N-(3,4-dimethoxybenzyl)-amino]propyloxy}benzenesulphonyl]indolizine], under setting [1], the activity at 0.1 µM was found to be 5.3% and the activity at 0.01 µM amounted to 26.1%. Under “Rattus norvegicus, 1 h, 10^-9 M, read-out: % of the maximum contractional effect”, the activity at 0.001 µM is 70.9%.
Take `COc1ccc(NCCCOc2ccc(S(=O)(=O)c3c(C(C)C)cn4ccccc34)cc2)cc1OC` [Ex. 44, 2-Isopropyl-1-{4-[3-(3,4-dimethoxyanilino)propyloxy]benzenesulphonyl}indolizine hydrochloride]: under setting [1], the activity at 1 µM turned out to be 29.8%, the activity at 0.1 µM came to 78.9% and the activity at 0.01 µM was determined as 89.5%.
As to `CCCCN(CCCC)CCCOc1ccc(Sc2ccncc2)cc1.O=C(O)C(=O)O.O=C(O)C(=O)O` [Ex. 56, 4-{4-[3-(di-n-butylamino)propyloxy]phenylthio}pyridine dioxalate], the “% of the maximum contractional effect” value is reported as 2.6%. Further, under setting [1], the activity at 1 µM is 58% and the activity at 0.1 µM was 86.2%.
The like results for `COc1ccc(CCN(C)CCCOc2ccc(Sc3ccncc3)cc2)cc1OC` [Ex. 57, 4-[4-{3-[N-methyl-N-(3,4-dimethoxy-β-phenethyl)amino]propyloxy}phenylthio]pyridine oxalate] were, in that order, 3.1%, 59% and 85%.
On to `CCCCN(CCCC)CCCOc1ccc(S(=O)(=O)c2ccccn2)cc1` [Ex. 58, 2-{4-[3-(di-n-butylamino)propyloxybenzenesulphonyl}pyridine oxalate], for which the “% of the maximum contractional effect” value was determined as 37%. Besides, under setting [1], the activity at 1 µM was determined as 84.7% and the activity at 0.1 µM stood at 88.9%.
For `CCCCN(CCCC)CCCOc1ccc(S(=O)(=O)c2ccncc2)cc1.O=C(O)C(=O)O.O=C(O)C(=O)O` [Ex. 60, 4-{4-[3-(di-n-butylamino)propyloxy]benzenesulphonyl}pyridine dioxalate], in that order: 20.2%, 75.5% and 89.7%.
For `COc1ccc(CCN(C)CCCOc2ccc(S(=O)(=O)c3ccncc3)cc2)cc1OC` [Ex. 61, 4-[4-{3-[N-methyl-N-(3,4-dimethoxy-βphenethyl)amino]propyloxy}benzenesulphonyl]pyridine oxalate], in that order: 14%, 70.7% and 88%.
With `CC(C)(C)NCCCOc1ccc(S(=O)(=O)c2ccccn2)cc1` [Ex. 62, 2-{4-[3-(tertiobutylamino)propyloxy]benzenesulphonyl}pyridine oxalate], the “% of the maximum contractional effect” value amounted to 70.6%. Also, under setting [1], the activity at 1 µM turned out to be 87.1%.
